In EP0935965A1, “ANTIPYLORI AGENT” (TORAY INDUSTRIES, INC., priority 1996, dated 1997):
Where a SMILES comes first, the peptide text is derived from it.

System: acetic acid ulcer
Assay: Healing accelerating action on acetic acid ulcer of rat
Type: in vivo, Sprague Dawle rats
Method: 15 Sprague Dawle rats each having a weight of about 220 g were used, and a gastric ulcer was experimentally formed in each of the rats. A gastric ulcer was formed by exposing the gastric anterior wall of each of the rats by ventrotomy under etherization, and injecting 0.03 ml of 20% acetic acid into the submucous layer in the boundary between the fundus glands and the pyloric glands of the gastric anterior wall by a Hamilton microsyringe in accordance with the method of Okabe et al., closing the stomach, and then feeding for 7 days in a normal manner.
On the seventh day, five rats were sacrificially killed, and the stomachs were extracted therefrom. The residual 10 rats were divided into two groups consisting of 5 rats each and used as a control group administered with physiologic saline and an experimental group administered with PR-39.
The rats in the control group and the experimental group were intraperitoneally administered with 1 ml of physiologic saline and 0.8 mg/ml of PR-39, respectively, once a day. After administration of physiologic saline or PR-39 for 7 days, the stomach was extracted from each of the rats on the day after final administration (14 days after acetic acid administration).
In each of the extracted stomachs, the pyloric ring and the esophagogastric junction were clamped, and 10 ml of 70% alcohol was injected into the stomach, followed by fixing. The stomach was cut along the curvatura ventriculi major to expose the gastric mucosal surface, and the gastric ulcer formed was visually observed to measure the surface area thereof.
Successively, a central portion of the gastric ulcer was cut out in parallel to the curvatura ventriculi minor, embedded in paraffin, and then stained with HE to histologically examine the formed gastric ulcer.
The examination terms included the length of each of the gastric ulcer, and the thickness of the granulation of the ulcer bottom thereof.

[1] = 14 days after acetic acid, histological observation, PR-39 0.8 mg/ml intraperitoneally once a day for 7 days

CC[C@H](C)[C@H](NC(=O)[C@H](CCCNC(=N)N)NC(=O)[C@@H]1CCCN1C(=O)[C@@H]1CCCN1C(=O)[C@H](CC(C)C)NC(=O)[C@H](CCCNC(=N)N)NC(=O)[C@@H]1CCCN1C(=O)[C@@H]1CCCN1C(=O)[C@H](Cc1ccccc1)NC(=O)[C@H](Cc1ccccc1)NC(=O)[C@@H]1CCCN1C(=O)[C@@H]1CCCN1C(=O)[C@@H]1CCCN1C(=O)[C@H](CCCNC(=N)N)NC(=O)[C@@H]1CCCN1C(=O)[C@H](CCCNC(=N)N)NC(=O)[C@@H]1CCCN1C(=O)[C@H](CC(C)C)NC(=O)[C@H](Cc1ccc(O)cc1)NC(=O)[C@@H]1CCCN1C(=O)[C@@H]1CCCN1C(=O)[C@H](CCCNC(=N)N)NC(=O)[C@@H]1CCCN1C(=O)[C@H](CCCNC(=N)N)NC(=O)[C@H](CCCNC(=N)N)NC(=O)[C@@H](N)CCCNC(=N)N)C(=O)N1CCC[C@H]1C(=O)N1CCC[C@H]1C(=O)NCC(=O)N[C@@H](Cc1ccccc1)C(=O)N1CCC[C@H]1C(=O)N1CCC[C@H]1C(=O)N[C@@H](CCCNC(=N)N)C(=O)N[C@@H](Cc1ccccc1)C(=O)N1CCC[C@H]1C(=O)N1CCC[C@H]1C(=O)N[C@@H](CCCNC(=N)N)C(=O)N[C@@H](Cc1ccccc1)C(=O)N1CCC[C@H]1C(N)=O [PR-39, proline arginine rich peptide-39] (H-RRRPRPPYLPRPRPPPFFPPRLPPRIPPGFPPRFPPRFP-NH2; N-terminus and C-terminus assumed)
Ulcer surface area (14 days after acetic acid, PR-39 0.8 mg/ml intraperitoneally once a day for 7 days): 2.82 ± 1.96 mm2; average±SEM | visual observation of gastric mucosa (14 days after acetic acid, compared with the control group (physiologic saline)): ulcer scar accompanied with concentration of the mucosal folds of gallbladder was observed | Diameter of ulcer [1]: 1.58 ± 0.49 mm | Thickness of granulation tissue [1]: 1.39 ± 0.59 mm | ulcer area as compared with the control group (PR-39 administered every day in the healing stage (7th to 14th day)): significantly decreased | thickness of granulation at the ulcer bottom (PR-39 administration): significantly decreased | length of an ulcer (histological observation) (PR-39 administration group): significantly decreased
